These results are taken from patent publication US20230091225A1, “Bifunctional chimeric heterocyclic compounds for targeted degradation of androgen receptors and use thereof” (HINOVA PHARMACEUTICALS INC., priority 2019, published 2023).

The target in the experiment is T1, androgen receptor (AR) (Homo sapiens, UniProt P10275).
T1 sequence (P10275 1-920): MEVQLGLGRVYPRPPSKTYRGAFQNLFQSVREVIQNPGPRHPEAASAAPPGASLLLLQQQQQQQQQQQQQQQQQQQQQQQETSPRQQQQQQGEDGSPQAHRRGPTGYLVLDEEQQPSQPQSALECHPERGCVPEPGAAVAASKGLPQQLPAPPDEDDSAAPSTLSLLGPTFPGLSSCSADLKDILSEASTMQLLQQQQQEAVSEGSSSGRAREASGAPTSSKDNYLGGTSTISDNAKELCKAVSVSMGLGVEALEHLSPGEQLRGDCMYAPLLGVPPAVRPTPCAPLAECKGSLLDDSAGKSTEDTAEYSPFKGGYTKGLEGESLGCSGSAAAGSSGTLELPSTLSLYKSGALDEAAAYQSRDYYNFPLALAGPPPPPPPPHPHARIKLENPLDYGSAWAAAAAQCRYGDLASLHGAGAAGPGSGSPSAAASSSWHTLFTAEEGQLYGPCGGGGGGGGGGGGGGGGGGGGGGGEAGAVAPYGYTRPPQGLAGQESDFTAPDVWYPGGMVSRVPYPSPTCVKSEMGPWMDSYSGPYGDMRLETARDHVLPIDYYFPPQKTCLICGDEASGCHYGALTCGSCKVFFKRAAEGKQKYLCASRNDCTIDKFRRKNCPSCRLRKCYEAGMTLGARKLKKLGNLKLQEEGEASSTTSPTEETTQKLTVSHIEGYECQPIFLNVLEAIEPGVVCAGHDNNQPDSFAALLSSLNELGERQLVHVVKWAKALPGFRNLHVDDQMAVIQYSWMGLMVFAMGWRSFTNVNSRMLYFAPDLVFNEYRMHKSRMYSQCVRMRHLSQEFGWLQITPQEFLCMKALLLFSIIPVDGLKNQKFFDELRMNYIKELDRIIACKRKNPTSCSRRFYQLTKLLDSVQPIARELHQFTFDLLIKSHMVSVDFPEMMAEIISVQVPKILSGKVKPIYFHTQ
Nature of the experiment: Degradation of androgen receptor (AR) protein in VCaP cells by ELISA. To be noted: for DC50: read-out: DC50; for Dmax: VCaP. It counts as cell-based.

[1] abbreviates: AR degradation, VCaP cells, 16 h, ELISA, Table 3-1.
[2] abbreviates: AR degradation, VCaP cells, 16 h, ELISA, Table 3-1, read-out: Dmax (%).
Setting [3] is: AR degradation, VCaP cells, 16 h, ELISA, Table 3-2.
[4] abbreviates: AR degradation, VCaP cells, 16 h, ELISA, Table 3-2, read-out: Dmax (%).

The structures appear in SMILES notation. Like-named read-outs stand apart in the source and are kept apart here.

As usually defined, the DC50 is the concentration giving 50% degradation. One may read the Dmax as the largest share of the target that was removed. On to `CC1(C)[C@H](Oc2ccc(C#N)c(Cl)c2)C(C)(C)[C@H]1N1Cc2nc(N3CCC(CN4CCN(c5ccc6c(c5)C(=O)N(C5CCC(=O)NC5=O)C6=O)CC4)CC3)ncc2C1=O` (stereo partly shown) [Compound 383], for which the DC50 under setting [1] lay within 10 to 100 nM. Also, the Dmax under setting [2] is over 80%.

In the case of `N#Cc1ccc(O[C@H]2CC[C@H](NC(=O)c3cn([C@H]4CC[C@H](CN5CCC6(CC5)CN(c5ccc7c(c5)C(=O)N(C5CCC(=O)NC5=O)C7=O)C6)CC4)nn3)CC2)cc1Cl` (stereo partly drawn) [Compound 114, N-((1r,4R)-4-(3-chloro-4-cyanophenoxy)cyclohexyl)-1-((1r,4R)-4-((2-(2-(2,6-dioxopiperidin-3-yl)-1,3-dioxoisoindolin-5-yl)-2,7-diazaspiro[3.5]nonan-7-yl)methyl)cyclohexyl)-1H-1,2,3-triazole-4-carboxamide], under setting [1], the DC50 is under 10 nM. Under setting [2], the Dmax is over 80%. In the case of `CC1(C)[C@H](Oc2ccc(C#N)c(Cl)c2)C(C)(C)[C@H]1N1Cc2nc(C#CC3CCC(N4CCC5(CCN(c6cc7c(cc6F)C(=O)N(C6CCC(=O)NC6=O)C7=O)C5)C4)CC3)ccc2C1=O` (stereo partly shown) [Compound 367, 2-Chloro-4-((1r,3r)-3-(2-((4-(7-(2-(2,6-dioxopiperidin-3-yl)-6-fluoro-1,3-dioxoisoindolin-5-yl)-2,7-diazaspiro[4.4]nonan-2-yl)cyclohexyl)ethynyl)-5-oxo-5,7-dihydro-6H-pyrrolo[3,4-b]pyridin-6-yl)-2,2,4,4-tetramethylcyclobutoxy) benzonitrile], under setting [1], the “Dmax (%)” value is “++ (60%-40%)” and the DC50 fell in the range of 100 to 300 nM. As for `CC1(C)[C@H](Oc2ccc(C#N)c(Cl)c2)C(C)(C)[C@H]1N1Cc2nc(N3CCC(CN4CCN(c5cc6c(cc5F)C(=O)N(C5CCC(=O)NC5=O)C6=O)CC4)CC3)cnc2C1=O` (stereo partly shown) [Compound 384], the DC50 under setting [1] was under 10 nM. In addition, the Dmax under setting [2] lay in the range of 60 to 80%. For `C[C@H]1CN(C[C@@H]2[C@H]3CN(c4cc5c(cc4F)C(=O)N(C4CCC(=O)NC4=O)C5=O)C[C@@H]23)CCN1c1cnc(C(=O)N[C@H]2CC[C@H](Oc3ccc(C#N)c(Cl)c3)CC2)cn1` (stereo partly shown) [Compound 171] the same measures were 10 to 100 nM and over 80%.

Take `CC1(C)[C@H](Oc2ccc(C#N)c(Cl)c2)C(C)(C)[C@H]1N1Cc2nc(C#CC3CCC(N4CC5(CCN(c6cc7c(cc6F)C(=O)N(C6CCC(=O)NC6=O)C7=O)CC5)C4)CC3)ccc2C1=O` (stereo partly shown) [Compound 379, 2-Chloro-4-((1r,3r)-3-(2-((4-(7-(2-(2,6-dioxopiperidin-3-yl)-6-fluoro-1,3-dioxoisoindolin-5-yl)-2,7-diazaspiro[3.5]nonan-2-yl)cyclohexyl)ethynyl)-5-oxo-5,7-dihydro-pyrrolo[3,4-b]pyridin-6-yl)-2,2,4,4-tetramethylcyclobutoxy) benzonitrile]: under setting [1], the “Dmax (%)” value is recorded as “++++ (>80%)” and the DC50 is 10 to 100 nM. For the compound `N#Cc1ccc(O[C@H]2CC[C@H](NC(=O)c3cnc(N4CC5(CN(CC6CCN(c7cc8c(cc7F)C(=O)N(C7CCC(=O)NC7=O)C8=O)CC6)C5)C4)cn3)CC2)cc1Cl` (stereo partly shown) [Compound 125], the DC50 under setting [1] is under 10 nM. Under setting [2], the Dmax is over 80%. In the case of `N#Cc1ccc(O[C@H]2CC[C@H](NC(=O)c3ccc(N4CCC(N5CCC6(CC5)CN(c5ccc7c(c5)C(=O)N(C5CCC(=O)NC5=O)C7=O)C6)CC4)nn3)CC2)cc1Cl` (stereo partly shown) [Compound 281, N-((1r,4r)-4-(3-chloro-4-cyanophenoxy)cyclohexyl)-6-(4-(2-(2-(2,6-dioxopiperidin-3-yl)-1,3-dioxoisoindolin-5-yl)-2,7-diazaspiro[3.5]nonan-7-yl)piperidin-1-yl)pyridazine-3-formamide], the DC50 under setting [1] was under 10 nM. Further, the maximal degradation (Dmax) under setting [2] is over 80%. Take `N#Cc1ccc(O[C@H]2CC[C@H](NC(=O)c3ccc(N4CCN(C5CC6(CCN(c7ccc8c(c7)C(=O)N(C7CCC(=O)NC7=O)C8=O)CC6)C5)CC4)nn3)CC2)cc1Cl` (stereo partly shown) [Compound 271, N-((1r,4r)-4-(3-chloro-4-cyanophenoxy)cyclohexyl)-6-(4-(7-(2-(2,6-dioxopiperidin-3-yl)-1,3-dioxoisoindolin-5-yl)-7-azaspiro[3.5]nonan-2-yl)piperazin-1-yl)pyridazine-3-formamide]: the DC50 under setting [1] is under 10 nM. Also, the Dmax under setting [2] is over 80%. For `N#Cc1ccc(O[C@H]2CC[C@H](NC(=O)c3cnc(N4CC5CC4CN5C[C@H]4[C@@H]5CN(c6cc7c(cc6F)C(=O)N(C6CCC(=O)NC6=O)C7=O)C[C@@H]54)cn3)CC2)cc1Cl` (stereo partly shown) [Compound 238] the same measures were 10 to 100 nM and 40 to 60%.

For the compound `N#Cc1ccc(O[C@H]2CC[C@H](NC(=O)c3ccc(N4CCC5(CCN(CC6CCN(c7cc8c(cc7F)C(=O)N(C7CCC(=O)NC7=O)C8=O)CC6)CC5)CC4)nn3)CC2)cc1Cl` (stereo partly shown) [Compound 261], the DC50 under setting [1] is under 10 nM. Besides, the Dmax under setting [2] was over 80%. Regarding `N#Cc1ccc(O[C@H]2CC[C@H](NC(=O)c3nnc(N4CCC(N5CCC6(CC5)CN(c5cc7c(cc5F)C(=O)N(C5CCC(=O)NC5=O)C7=O)C6)CC4)s3)CC2)cc1Cl` (stereo partly shown) [Compound 83], the Dmax was under 40%. The DC50 under setting [1] was over 300 nM. As to `COc1cc(O[C@H]2C(C)(C)[C@H](N3Cc4nc(C#C[C@H]5C[C@H](N6CCN(c7ccc8c(c7)C(=O)N(C7CCC(=O)NC7=O)C8=O)CC6)C5)ccc4C3=O)C2(C)C)ccc1C#N` (stereo partly shown) [Compound 392], the DC50 under setting [3] lay in the range of 10 to 100 nM. Further, the Dmax under setting [4] is over 80%. Taken in the same sequence, the figures for `COc1cc(O[C@H]2C(C)(C)[C@H](N3Cc4nc(C#C[C@H]5CC[C@H](N6CCN(c7cc8c(cc7F)C(=O)N(C7CCC(=O)NC7=O)C8=O)CC6)CC5)ccc4C3=O)C2(C)C)ccc1C#N` (stereo partly shown) [Compound 399] were under 10 nM and over 80%.

As to `CC1(C)[C@H](Oc2ccc(C#N)c(Cl)c2)C(C)(C)[C@H]1N1Cc2nc(C#CC3CCC(N4CC5(CCN(c6ccc7c(c6)C(=O)N(C6CCC(=O)NC6=O)C7=O)C5)C4)CC3)ccc2C1=O` (stereo partly shown) [Compound 369, 2-Chloro-4-((1r,3r)-3-(2-((4-(6-(2-(2,6-dioxopiperidin-3-yl)-1,3-dioxoisoindolin-5-yl)-2,6-diazaspiro[3.4]octane-2-yl)cyclohexyl)ethynyl)-5-oxo-5,7-dihydro-pyrrolo[3,4-b]pyridin-6-yl)-2,2,4,4-tetramethylcyclobutoxy) benzonitrile], under setting [1], the “Dmax (%)” value was “+++ (80%-60%)” and the DC50 was 10 to 100 nM.

As for `CC1(C)[C@H](Oc2ccc(C#N)c(Cl)c2)C(C)(C)[C@H]1N1Cc2nc(C#CC3CC(N4CC5CN(c6cc7c(cc6F)C(=O)N(C6CCC(=O)NC6=O)C7=O)CC5C4)C3)ccc2C1=O` (stereo partly shown) [Compound 361, 2-Chloro-4-((1r,3r)-3-(2-((3-(5-(2,6-dioxopiperidin-3-yl)-6-fluoro-1,3-dioxoisoindolin-5-yl)hexahydropyrrolo[3,4-c]pyrrol-2(1H)-cyclobutyl)ethynyl)-5-oxo-5,7-dihydro-6H-pyrrolo[3,4-b]pyridin-6-yl)-2,2,4,4-tetramethylcyclobutoxy) benzonitrile], under setting [1], the DC50 lay within 10 to 100 nM.

With `N#Cc1ccc(O[C@H]2CC[C@H](NC(=O)c3ncnn3[C@H]3CC[C@H](CN4CCC5(CC4)CN(c4cc6c(cc4F)C(=O)N(C4CCC(=O)NC4=O)C6=O)C5)CC3)CC2)cc1Cl` (stereo partly shown) [Compound 87], the DC50 under setting [1] fell in the range of 100 to 300 nM. Moreover, the greatest degradation seen (Dmax) under setting [2] lay within 40 to 60%. For `N#Cc1ccc(O[C@H]2CC[C@H](NC(=O)c3ccc(N4CC5(CCN(CC6CCN(c7ccc8c(c7)C(=O)N(C7CCC(=O)NC7=O)C8=O)CC6)CC5)C4)cc3)CC2)cc1Cl` (stereo partly shown) [Compound 194, N-((1r,4r)-4-(3-chloro-4-cyanophenoxy)cyclohexyl)-4-(7-((1-(2-(2,6-dioxopiperidin-3-yl)-1,3-dioxoisoindolin-5-yl)piperidine-4-yl)methyl)-2,7-diazaspiro[3.5]nonan-2-yl)benzamide] the same measures were under 10 nM and over 80%. `CC1(C)C(Oc2ccc(C#N)c(Cl)c2)C(C)(C)C1N1Cc2nc(C#CC3CCC(N4CC5CN(c6ccc7c(c6)C(=O)N([C@@H]6CCC(=O)NC6=O)C7=O)CC5C4)CC3)ccc2C1=O` (stereo partly shown) [Compound 349, 2-Chloro-4-((1r,3r)-3-(2-((4-(5-(2-(2,6-dioxopiperidin-3-yl)-1,3-dioxoisoindolin-5-yl)hexahydropyrrolo[3,4-c]pyrrol-2(1H)-yl)cyclohexyl)ethynyl)-5-oxo-5,7-dihydro-6H-pyrrolo[3,4-b]pyridin-6-yl)-2,2,4,4-tetramethylcyclobutoxy)benzonitrile]: the half-maximal degradation concentration (DC50) was in the range of 10 to 100 nM. For the same compound, under setting [1], the “Dmax (%)” value was “++++ (>80%)”.
